# Biological target: T1, estrogen receptor (Homo sapiens, UniProt P03372)
# T1 sequence (P03372 1-595): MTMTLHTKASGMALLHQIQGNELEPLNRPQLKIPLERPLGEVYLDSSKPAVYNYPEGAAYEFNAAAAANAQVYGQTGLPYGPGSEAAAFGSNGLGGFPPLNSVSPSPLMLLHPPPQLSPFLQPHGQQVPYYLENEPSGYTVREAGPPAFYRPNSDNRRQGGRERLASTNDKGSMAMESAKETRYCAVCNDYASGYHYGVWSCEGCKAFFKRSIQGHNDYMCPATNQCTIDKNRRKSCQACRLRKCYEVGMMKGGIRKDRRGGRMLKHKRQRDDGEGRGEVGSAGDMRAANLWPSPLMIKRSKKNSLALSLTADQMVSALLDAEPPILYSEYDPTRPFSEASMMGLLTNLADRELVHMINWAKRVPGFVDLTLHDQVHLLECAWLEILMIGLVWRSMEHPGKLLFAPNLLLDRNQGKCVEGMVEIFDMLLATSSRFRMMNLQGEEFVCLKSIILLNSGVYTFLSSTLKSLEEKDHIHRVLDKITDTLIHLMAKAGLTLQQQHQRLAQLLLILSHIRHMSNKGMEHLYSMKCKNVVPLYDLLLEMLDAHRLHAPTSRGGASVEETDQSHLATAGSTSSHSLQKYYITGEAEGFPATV
# Assay: Western blot, estrogen receptor downregulation in MCF-7:5C cells
# Format: cell-based
# Parameters: Whole-cell extracts of cultured cells were prepared in lysis buffer; endogenous in cells
# Conditions: 24 hours, 1 nM to 1 uM
# Method: (§1) Whole-cell extracts of cultured cells were prepared in lysis buffer (200 mmol/L Tris, 1% Triton X-100, 5 mmol/L EDTA) with protease and phosphatase inhibitor cocktails (1:50, both from Sigma-Aldrich) after scraping from the culture plates. Protein concentration was measured using the Bradford method (Bio-Rad). Proteins were separated under denaturing conditions and blotted onto nitrocellulose membrane (Bio-Rad) using a wet transfer system (Bio-Rad). Images of blots were acquired on a Bio-Rad ChemiDoc System following incubation with SuperSignal West Dura luminol solution (Thermo Fisher Scientific).
# (§2) Fulvestrant at 1 uM concentration was assayed as a positive control.
row,estrogen receptor downregulation (western blot),Compound
1,estrogen receptor downregulation,"O=C(O)/C=C/c1ccc(-c2c(C(=O)c3ccc(O)cc3)sc3cc(O)ccc23)cc1 [Compound 1, (E)-3-(4-(6-hydroxy-2-(4-hydroxybenzoyl)benzo[b]thiophen-3-yl)phenyl)acrylic acid]"

# Biological target: T1, estrogen receptor
# Assay: Western blot, estrogen receptor downregulation in T47D:neo cells
# Format: cell-based
# Parameters: Whole-cell extracts of cultured cells were prepared in lysis buffer; endogenous in cells; host or cells: T47D:neo
# Conditions: 24 hours, 1 nM to 1 uM
# Method: as §1, §2
row,estrogen receptor downregulation (western blot),Compound
1,estrogen receptor downregulation,"O=C(O)/C=C/c1ccc(-c2c(C(=O)c3ccc(O)cc3)sc3cc(O)ccc23)cc1 [Compound 1, (E)-3-(4-(6-hydroxy-2-(4-hydroxybenzoyl)benzo[b]thiophen-3-yl)phenyl)acrylic acid]"

# System: MCF7:5C (Tamoxifen Resistant) cells
# Assay: Cell viability of MCF7:5C (tamoxifen resistant), DNA content growth inhibition
# Format: cell-based
# Conditions: 144 h, Table 1, data normalized to 1 uM fulvestrant, day 6, read-out: MCF-5C growth inhibition IC50
# Method: Assays Cell Viability of MCF7:5C (Tamoxifen Resistant)
# The DNA content of the cells was determined as previously described using a Fluorescent DNA Quantitation kit (cat. No. 170-2480; Bio-Rad Laboratories, Hercules, Calif.). Briefly, five thousand cells were plated per well in 96-well plates, and treatment with indicated concentrations of compounds was started at the same time in each well. On day 6, the cells in the plates were lysed and frozen at −80° C. To measure the total DNA in each well, the plates were allowed to warm to room temperature, incubated with Hoechst dye, and mixed well. The fluorescence was measured using a Synergy H4 Hybrid Multi-Mode Microplate Reader. For each analysis, six replicate wells were used and at least three independent experiments were performed.
# FIG. 1 is a graph of the efficacy of Compound 1 against tamoxifen-resistant MCF-7:5 cells normalized to 1 uM fulvestrant. The y-axis is cell survival as a percent of the control and the x-axis is the concentration of the compound measured in nanomolar units.
row,Compound,IC50 [nM]
1,"O=C(O)/C=C/Oc1ccc(-c2c(C(=O)c3ccc(O)cc3)sc3cc(O)ccc23)cc1 [Compound 2, (E)-3-(4-(6-hydroxy-2-(4-hydroxybenzoyl)benzo[b]thiophen-3-yl)phenoxy)acrylic acid]",< 10
2,"Cc1ccccc1C(=O)c1sc2cc(O)ccc2c1-c1ccc(/C=C/C(=O)O)cc1 [Compound 6, (E)-3-(4-(6-hydroxy-2-(2-methylbenzoyl)benzo[b]thiophen-3-yl)phenyl)acrylic acid]",> 200
3,"O=C(O)/C=C/c1ccc(-c2c(C(=O)c3ccccc3C(F)(F)F)sc3cc(O)ccc23)cc1 [Compound 5, (E)-3-(4-(6-hydroxy-2-(2-(trifluoromethyl)benzoyl)benzo[b]thiophen-3-yl)phenyl)acrylic acid]",> 200
4,"O=C(O)/C=C/c1ccc(-c2c(C(=O)c3ccccc3F)sc3cc(O)ccc23)cc1 [Compound 3, (E)-3-(4-(2-(2-fluorobenzoyl)-6-hydroxybenzo[b]thiophen-3-yl)phenyl)acrylic acid]",> 200
5,"Cc1cccc(C)c1C(=O)c1sc2cc(O)ccc2c1-c1ccc(/C=C/C(=O)O)cc1 [Compound 10, (E)-3-(4-(2-(2,6-dimethylbenzoyl)-6-hydroxybenzo[b]thiophen-3-yl)phenyl)acrylic acid]",> 200
6,"Cc1cc(F)cc(C)c1C(=O)c1sc2cc(O)ccc2c1-c1ccc(/C=C/C(=O)O)cc1 [Compound 8, (E)-3-(4-(2-(4-fluoro-2,6-dimethylbenzoyl)-6-hydroxybenzo[b]thiophen-3-yl)phenyl)acrylic acid]",> 200
7,"O=C(O)/C=C/c1ccc(-c2c(C(=O)c3ccc(O)cc3)sc3cc(O)ccc23)cc1 [Compound 1, (E)-3-(4-(6-hydroxy-2-(4-hydroxybenzoyl)benzo[b]thiophen-3-yl)phenyl)acrylic acid]",< 100
8,"Cc1cc(F)ccc1C(=O)c1sc2cc(O)ccc2c1-c1ccc(/C=C/C(=O)O)cc1 [Compound 9, (E)-3-(4-(2-(4-fluoro-2-methylbenzoyl)-6-hydroxybenzo[b]thiophen-3-yl)phenyl)acrylic acid]",> 200
9,"Cc1ccc(F)cc1C(=O)c1sc2cc(O)ccc2c1-c1ccc(/C=C/C(=O)O)cc1 [Compound 7, (E)-3-(4-(2-(5-fluoro-2-methylbenzoyl)-6-hydroxybenzo[b]thiophen-3-yl)phenyl)acrylic acid]",> 200
10,"Cc1cc(C)cc(C(=O)c2sc3cc(O)ccc3c2-c2ccc(/C=C/C(=O)O)cc2)c1 [Compound 11, (E)-3-(4-(2-(3,5-dimethylbenzoyl)-6-hydroxybenzo[b]thiophen-3-yl)phenyl)acrylic acid]",> 200
11,"O=C(O)/C=C/c1ccc(-c2c(C(=O)c3ccccc3Cl)sc3cc(O)ccc23)cc1 [Compound 4, (E)-3-(4-(2-(2-chlorobenzoyl)-6-hydroxybenzo[b]thiophen-3-yl)phenyl)acrylic acid]",> 200

# Same assay, conditions: 144 h, Table 2, data normalized to 1 uM fulvestrant, day 6, read-out: MCF-5C growth inhibition IC50
row,Compound,IC50 [nM]
1,"Cc1cc(OC(F)(F)F)ccc1C(=O)c1sc2cc(O)ccc2c1-c1ccc(/C=C/C(=O)O)cc1 [Compound 13, (E)-3-(4-(6-hydroxy-2-(2-methyl-4-(trifluoromethoxy)benzoyl)benzo[b]thiophen-3-yl)phenyl)acrylic acid]",> 200
2,"Cc1cc(O)cc(C)c1C(=O)c1sc2cc(O)ccc2c1-c1ccc(/C=C/C(=O)O)cc1 [Compound 15, (E)-3-(4-(6-hydroxy-2-(4-hydroxy-2,6-dimethylbenzoyl)benzo[b]thiophen-3-yl)phenyl)acrylic acid]",> 200
3,"Cc1cc(O)ccc1C(=O)c1sc2cc(O)ccc2c1-c1ccc(/C=C/C(=O)O)cc1 [Compound 14, (E)-3-(4-(6-hydroxy-2-(4-hydroxy-2-methylbenzoyl)benzo[b]thiophen-3-yl)phenyl)acrylic acid]",> 200
4,"O=C(O)/C=C/c1ccc(-c2c(C(=O)C3CCCCC3)sc3cc(O)ccc23)cc1 [Compound 12, (E)-3-(4-(2-(cyclohexanecarbonyl)-6-hydroxybenzo[b]thiophen-3-yl)phenyl)acrylic acid]",< 200

# — US10703747B2, “Benzothiophene-based selective mixed estrogen receptor downregulators” (The Board of Trustees of the University of Illnois, priority 2016, dated 2020)
